The values below are quoted from earlier work in patent US20170100348A1, “Treatment Regime for Chronic Sinusitis” (priority 2015, published 2017).

In one data set the test system is Pseudomonas aeruginosa. To be noted: bacteria and phenolic compound incubated together on a plate.
The test system of another data set is microbial organisms. The following applies: background statement.
The subject of the next data set is Pseudomonas aerunginosa. The following applies: background statement, FIG. 1.

Regarding `O=C(O[C@@H]1Cc2c(O)cc(O)cc2O[C@@H]1c1cc(O)c(O)c(O)c1)c1cc(O)c(O)c(O)c1` [epigallocatechin gallate], in the data set with Pseudomonas aeruginosa, the “biofilm formation compared to the control” value was “significant reduction in formation of biofilm”.

Take Catechin: in the data set on Pseudomonas aeruginosa, the “biofilm formation compared to the control” value was “significant reduction in formation of biofilm”.

Consider `O=C(OC[C@H]1O[C@@H](OC(=O)c2cc(O)c(O)c(OC(=O)c3cc(O)c(O)c(O)c3)c2)[C@H](OC(=O)c2cc(O)c(O)c(OC(=O)c3cc(O)c(O)c(O)c3)c2)[C@@H](OC(=O)c2cc(O)c(O)c(OC(=O)c3cc(O)c(O)c(O)c3)c2)[C@@H]1OC(=O)c1cc(O)c(O)c(OC(=O)c2cc(O)c(O)c(O)c2)c1)c1cc(O)c(O)c(OC(=O)c2cc(O)c(O)c(O)c2)c1` [tannic acid], for which the “biofilm formation compared to the control” value with Pseudomonas aeruginosa is on record as “significant reduction in formation of biofilm”.

For the compound `Oc1ccccc1` [Phenol], in the data set on microbial organisms, the bacteriocidal concentration is reported as 0.04-1.0% and the bacteriostatic concentration entry is “greater than 0.02%”. In addition, the “concentration with activity against Pseudomonas aerunginosa” value in the data set on Pseudomonas aerunginosa was 0.5-1.0%. Besides, in the data set on streptococcus mutans, the preventing biofilm formation entry is reported as “effective”. Moreover, in the data set on fungi, the fungicidal concentration entry is listed as “greater than 1.3%”. In the data set on Pseudomonas aeruginosa, the “biofilm formation compared to the control” value is listed as “significant reduction in formation of biofilm”.
